Laboratory results as given in patent publication US20070179060A1, “6-(Poly-substituted aryl)-4-aminopicolinates and their use as herbicides” (priority 2006, published 2007).

What was measured:
Cyperus difformis = experiment: Herbicidal activity in transplanted paddy rice; format: in vivo; settings: paddy water application, after 3 weeks; for pest or weed control at 35 g/ha: 35 g ai/ha
Protocol: (§1) Weed seeds or nutlets of the desired test plant species were planted in puddled soil (mud) prepared by mixing a non-sterilized mineral soil (28 percent silt, 18 percent clay, and 54 percent sand, with a pH of about 7.3 to 7.8 and an organic matter content of about 1.0 percent) and water at a ratio of 100 kg of soil to 19 L of water. The prepared mud was dispensed in 250 mL aliquots into 480 mL non-perforated plastic pots with a surface area of 91.6 square centimeters leaving a headspace of 3 centimeters in each pot. […] Seedlings at the second or third leaf stage of growth were transplanted into 650 mL of mud contained in 960 mL non-perforated plastic pots with a surface area of 91.6 square centimeters 4 days prior to herbicide application. The paddy was created by filling the 3 centimeter headspace of the pots with water. When required to ensure good germination and healthy plants, a fungicide treatment and/or other chemical or physical treatment was applied. The plants were grown for 4-14 days in a greenhouse with an approximate 14 hour photoperiod which was maintained at about 29° C. during the day and 26° C. during the night. Nutrients were added as Osmocote (17:6:10, N:P:K+minor nutrients) at 2 g per pot. Water was added on a regular basis to maintain the paddy flood, and supplemental lighting was provided with overhead metal halide 1000-Watt lamps as necessary. The plants were employed for testing when they reached the second or third true leaf stage. A weighed amount, determined by the highest rate to be tested, of each test compound was placed in a 120 mL glass vial and was dissolved in 20 mL of acetone to obtain concentrated stock solutions. […] Application rates of ½×, ¼×, ⅛× and 1/16× of the high rate were obtained by injecting an appropriate amount of the stock solution into the aqueous layer of the paddy. Control plants were treated in the same manner with the solvent blank. The treated plants and control plants were placed in a greenhouse as described above and water was added as needed to maintain a paddy flood.

Echinochloa crus-galli = experiment: Herbicidal activity in transplanted paddy rice; format: in vivo; settings: paddy water application, after 3 weeks; for pest or weed control at 35 g/ha: 35 g ai/ha
Protocol: as §1

Scirpus juncoides = experiment: Herbicidal activity in transplanted paddy rice; format: in vivo; settings: paddy water application, after 3 weeks; for pest or weed control at 35 g/ha: 35 g ai/ha
Protocol: as §1

Monochoria vaginalis = experiment: Herbicidal activity in transplanted paddy rice; format: in vivo; settings: paddy water application, after 3 weeks; for pest or weed control at 35 g/ha: 35 g ai/ha
Protocol: as §1

[1] = system: rice (Orysa sativa var. Japonica); experiment: Herbicidal activity in transplanted paddy rice; format: in vivo; settings: transplant rice (crop), paddy water application, after 3 weeks; for pest or weed control at 35 g/ha: 35 g ai/ha
Protocol: as §1

[2] = system: wheat (Triticum aestivum); experiment: Postemergence herbicidal activity in cereal crops; format: in vivo; settings: crop, post-emergent, 17.5 g ai/ha, after 20-22 days; for plant injury at 17.5 g/ha: Triticum aestivum, post-emergence, 480 h, read-out: % Control TRZAS
In short: (§2)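 Greenhouse plants (about 18 °C day/17 °C night, ~14 h photoperiod) were grown 7-36 days to the second or third true leaf stage. They were then sprayed overhead at 187 L/ha with compound in acetone/water/isopropanol/DMSO/crop oil/Triton X-77 carrier. Blank-sprayed plants served as controls, and watering was by sub-irrigation to avoid wash-off.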

Papaver rhoeas = experiment: Postemergence herbicidal activity in cereal crops; format: in vivo; settings: post-emergent, 17.5 g ai/ha, after 20-22 days; for pest or weed control at 17.5 g/ha: Papaver rhoeas, post-emergence, 480 h, read-out: % Control PAPRH
In short: as §2

Galium aparine = experiment: Postemergence herbicidal activity in cereal crops; format: in vivo; settings: post-emergent, 17.5 g ai/ha, after 20-22 days; for pest or weed control at 17.5 g/ha: Galium aparine, post-emergence, 480 h, read-out: % Control GALAP
In short: as §2

Veronica persica = experiment: Postemergence herbicidal activity in cereal crops; format: in vivo; settings: post-emergent, 17.5 g ai/ha, after 20-22 days; for pest or weed control at 17.5 g/ha: Veronica persica, post-emergence, 480 h, read-out: % Control VERPE
In short: as §2

Lamium purpureum = experiment: Postemergence herbicidal activity in cereal crops; format: in vivo; settings: post-emergent, 17.5 g ai/ha, after 20-22 days; for pest or weed control at 17.5 g/ha: Lamium purpureum, post-emergence, 480 h, read-out: % Control LAMPU
In short: as §2

barley (Hordeum vulare) = experiment: Postemergence herbicidal activity in cereal crops; format: in vivo; settings: crop, post-emergent, 17.5 g ai/ha, after 20-22 days; for pest or weed control at 17.5 g/ha: Hordeum, post-emergence, 480 h, read-out: % Control HORVS
In short: as §2

[3] = system: redroot pigweed (Amaranthus retroflexus); experiment: Postemergence herbicidal activity; format: in vivo; settings: post-emergent, 140 g ai/ha, after 14 days; for pest or weed control at 140 g/ha: Amaranthus retroflexus, post-emergence, 336 h, read-out: % Control AMARE
In short: (§3)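 Compounds were applied postemergence by track sprayer delivering 187 L/ha, using a mixed organic/aqueous carrier containing crop oil concentrate and surfactant; solvent-blank sprays served as controls. Test plants were at the first to second true leaf stage after 7-21 days' greenhouse growth, were sub-irrigated after treatment, and were evaluated by probit analysis.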

[4] = system: lambsquarter (Chenopodium album); experiment: Postemergence herbicidal activity; format: in vivo; settings: post-emergent, 140 g ai/ha, after 14 days; for pest or weed control at 140 g/ha: Chenopodium album, post-emergence, 336 h, read-out: % Control CHEAL
In short: as §3

[5] = system: velvetleaf (Abutilon theophrasti); experiment: Postemergence herbicidal activity; format: in vivo; settings: post-emergent, 140 g ai/ha, after 14 days; for pest or weed control at 140 g/ha: Abutilon theophrasti, post-emergence, 336 h, read-out: % Control ABUTH
In short: as §3

[6] = Cyperus difformis, 504 h, read-out: % Control CYPDI
[7] = Echinochloa crus-galli, 504 h, read-out: % Control ECHCG
[8] = Schoenoplectiella juncoides, 504 h, read-out: % Control SCPJU
[9] = Pontederia vaginalis, 504 h, read-out: % Control MOOVA
[10] = Cyperus difformis, 504 h, 17.5 g ai/ha, read-out: % Control CYPDI
[11] = Echinochloa crus-galli, 504 h, 17.5 g ai/ha, read-out: % Control ECHCG
[12] = Schoenoplectiella juncoides, 504 h, 17.5 g ai/ha, read-out: % Control SCPJU
[13] = Pontederia vaginalis, 504 h, 17.5 g ai/ha, read-out: % Control MOOVA
[14] = Oryza sativa, 504 h, 17.5 g ai/ha

SMILES | pest or weed control at 35 g/ha (Cyperus difformis; [6]) [%] | pest or weed control at 35 g/ha (Echinochloa crus-galli; [7]) [%] | pest or weed control at 35 g/ha (Scirpus juncoides; [8]) [%] | pest or weed control at 35 g/ha (Monochoria vaginalis; [9]) [%] | pest or weed control at 35 g/ha ([1]; Oryza sativa, 504 h) [%] | melting point [°C] | plant injury at 17.5 g/ha [2] [%] | pest or weed control at 17.5 g/ha (Papaver rhoeas) [%] | pest or weed control at 17.5 g/ha (Galium aparine) [%] | pest or weed control at 17.5 g/ha (Veronica persica) [%] | pest or weed control at 17.5 g/ha (Lamium purpureum) [%] | pest or weed control at 17.5 g/ha (barley (Hordeum vulare)) [%] | pest or weed control at 140 g/ha [3] [%] | pest or weed control at 140 g/ha [4] [%] | pest or weed control at 140 g/ha [5] [%] | other results
CCN(CC)c1c(Cl)ccc(-c2cc(N)c(Cl)c(C(=O)OC)n2)c1F [Compound 17, 4-Amino-3-chloro-6-[4-chloro-3-(diethylamino)-2-fluorophenyl]pyridine-2-carboxylic acid, methyl ester] | 100 | 70 | 90 | 100 | 0 | 120 to 121 | 0 | 100 | 80 | 99 | 100 | 0 | 100 | 100 | 100 | 
CNc1c(Cl)ccc(-c2cc(N)c(Cl)c(C(=O)OC)n2)c1F [Compound 38, 4-Amino-3-chloro-6-[4-chloro-2-fluoro-3-(methylamino)phenyl]pyridine-2-carboxylic acid, methyl ester] |  |  |  |  |  | 148 to 149 | 5 | 100 | 85 | 99 | 95 | 0 | 100 | 100 | 100 | pest or weed control at 70 g/ha (Cyperus difformis; Cyperus difformis, 504 h, 70 g ai/ha, read-out: % Control CYPDI): 100%; pest or weed control at 70 g/ha (Echinochloa crus-galli; Echinochloa crus-galli, 504 h, 70 g ai/ha, read-out: % Control ECHCG): 50%; pest or weed control at 70 g/ha (Scirpus juncoides; Schoenoplectiella juncoides, 504 h, 70 g ai/ha, read-out: % Control SCPJU): 95%; pest or weed control at 70 g/ha (Monochoria vaginalis; Pontederia vaginalis, 504 h, 70 g ai/ha, read-out: % Control MOOVA): 100%; pest or weed control at 70 g/ha ([1]; Oryza sativa, 504 h, 70 g ai/ha): 0%
COC(=O)c1nc(-c2ccc(Cl)c(C(C)F)c2F)cc(N)c1Cl (centres unmarked) [Compound 61, 4-Amino-3-chloro-6-[4-chloro-2-fluoro-3-(1-fluoroethyl)phenyl]pyridine-2-carboxylic acid, methyl ester] | 100 | 80 | 100 | 100 | 0 |  | 10 | 90 | 85 | 75 | 99 | 0 | 100 | 100 | 100 | 
CCCCOC(=O)c1nc(-c2ccc(Br)c(OC)c2F)cc(N)c1Cl [Compound 90, 4-Amino-3-chloro-6-(4-bromo-2-fluoro-3-methoxyphenyl)pyridine-2-carboxylic acid, butyl ester] |  |  |  |  |  |  | 0 | 95 | 99 | 25 | 100 | 10 | 85 | 100 | 100 | pest or weed control at 17.5 g/ha (Cyperus difformis; [10]): 100%; pest or weed control at 17.5 g/ha (Echinochloa crus-galli; [11]): 30%; pest or weed control at 17.5 g/ha (Scirpus juncoides; [12]): 90%; pest or weed control at 17.5 g/ha (Monochoria vaginalis; [13]): 100%; pest or weed control at 17.5 g/ha [1, 14]: 0%
CCCCOC(=O)c1nc(-c2ccc(Cl)c(C(C)F)c2F)cc(N)c1Cl (centres unmarked) [Compound 91, 4-Amino-3-chloro-6-[4-chloro-2-fluoro-3-(1-fluoroethyl)phenyl)pyridine-2-carboxylic acid, butyl ester] | 100 | 99 | 99 | 100 | 0 |  | 20 | 60 | 90 | 45 | 100 | 10 | 100 | 100 | 95 | 
CCCCOCCOC(=O)c1nc(-c2ccc(Cl)c(OC)c2F)cc(N)c1Cl [Compound 92, 4-Amino-3-chloro-6-(4-chloro-2-fluoro-3-methoxyphenyl)pyridine-2-carboxylic acid, 2-butoxy-ethyl ester] |  |  |  |  |  | 72 to 74 |  |  |  |  |  |  |  |  |  | pest or weed control at 17.5 g/ha (Cyperus difformis; [10]): 99%; pest or weed control at 17.5 g/ha (Echinochloa crus-galli; [11]): 40%; pest or weed control at 17.5 g/ha (Scirpus juncoides; [12]): 90%; pest or weed control at 17.5 g/ha (Monochoria vaginalis; [13]): 100%; pest or weed control at 17.5 g/ha [1, 14]: 0%; % Control TRZAS [2]: 0%; % Control PAPRH (Papaver rhoeas): 95%; % Control GALAP (Galium aparine): 99%; % Control VERPE (Veronica persica): 30%; % Control LAMPU (Lamium purpureum): 100%; % Control HORVS (barley (Hordeum vulare)): 0%; % Control AMARE [3]: 100%; % Control CHEAL [4]: 100%; % Control ABUTH [5]: 100%
CCN(CC)CC.COc1c(Cl)ccc(-c2cc(N)c(Cl)c(C(=O)O)n2)c1F [Compound 135, 4-amino-3-chloro-6-(4-chloro-2-fluoro-3-methoxyphenyl)-pyridine-2-carboxylic acid, triethyl amine salt] |  |  |  |  |  |  |  |  |  |  |  |  |  |  |  | % Control CYPDI (Cyperus difformis; 17.5 g ai/ha): 100%; % Control ECHCG (Echinochloa crus-galli; 17.5 g ai/ha): 30%; % Control SCPJU (Scirpus juncoides; 17.5 g ai/ha): 85%; % Control MOOVA (Monochoria vaginalis; 17.5 g ai/ha): 100%; % Control ORYSA ([1]; 17.5 g ai/ha): 10%; % Control TRZAS [2]: 0%; % Control PAPRH (Papaver rhoeas): 100%; % Control GALAP (Galium aparine): 90%; % Control VERPE (Veronica persica): 60%; % Control LAMPU (Lamium purpureum): 100%; % Control HORVS (barley (Hordeum vulare)): 0%
